The target of assay [1] is T1, FKBP12 (Homo sapiens, UniProt P62942).
T1 construct: GST (N, cleaved yes); made in house
In words: Binding constants (Kd) for FKBP12, isothermal titration calorimetry. An excerpt: SLF was synthesized according to the procedures of Holt et al. [J. Am. Chem. Soc. 1993, 115, 9925]. SLF was coupled to the N-terminus of the resin-bound protected pYEEI peptide using PyBOP. The heterodimeric SLFpYEEI was deprotected and cleaved from the Novasyn TGT resin (Calbiochem-Novabiochem, San Diego, Ca.) using 25% trifluoroacetic acid and 2.5% triisopropyl silane in methylene chloride and the desired product was isolated using reverse phase HPLC. C. […] Recombinant FKBP12 was expressed as a GST fusion protein and bound to glutathione beads (Pharmacia). Using thrombin (Sigma) to cleave the GST-FKBP12 fusion protein at a thrombin cleavage site in the linker between GST and FKBP12, recombinant FKBP12 could be released from the glutathione beads where GST remained bound. FKBP52 was expressed with a tag of six histidine residues at its N-terminus (pET28c expression vector, Novagen). The recombinant protein was bound via the histidine tag to Ni^2+ NTA agarose beads (Qiagen), washed extensively and eluted with imidazole. […]
SLFpYEEI and FKpYEEI are bifunctional molecules that can bind FKBP12 and FKBP52 as well as the Fyn SH2 domain (FIG. 2). The binding constants (Kd values) of the bifunctional molecules for the three proteins were measured using isothermal titration calorimetry (ITC) (Table 1).

The target in assay [2] is T2, Lck SH2 domain (Homo sapiens, UniProt P06239).
T2 construct: The Fyn, Lck and PLC SH2 domains were expressed in bacteria as GST fusion proteins; GST (cleaved yes); made in house; host or cells: bacteria
T2 sequence (P06239 127-224 limits assumed): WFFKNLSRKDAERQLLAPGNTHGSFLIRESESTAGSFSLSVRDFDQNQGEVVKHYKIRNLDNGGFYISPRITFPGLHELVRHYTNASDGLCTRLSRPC
Nature of the assay: Competition binding assay of radioactive Lck SH2 domain to pYEEI beads. The note with it: 1.0 μM ligand plus FKBP12 2.0 μM. An excerpt: The pYEEI peptide was coupled to Affi-Gel 10 beads (Biorad) via its amino-group. The Fyn, Lck and PLC SH2 domains were expressed in bacteria as GST fusion proteins. The linker between the GST protein and the SH2 domain contained a thrombin cleavage site and a protein kinase A (PKA) phosphorylation site. The fusion protein on glutathione beads was radioactively labeled at the PKA phosphorylation site using PKA (Sigma). After extensive washing of the beads, the radioactive SH2 domain was released by cleavage with thrombin (Sigma). […] The beads were resuspended in […] PBS and the radioactivity was counted in a liquid scintillation counter after addition of 3 ml scintillation fluid. The radioactivity remaining in the 100 L supernatant was counted in the same way. It was determined that under the conditions described 65% Fyn, 25% PLC and 15%Lck SH2 domain were bound to the beads. […]
To test if the presence of FKBP12 affects the affinity of FKpYEEI for other SH2 domains aside from the PLC SH2 domain, FKpYEEI and FKBP12 were added to binding reactions containing the Fyn, Lck or PLC SH2 domains (FIG. 10). […] The binding reactions were rotated at room temperature for 2 hours, centrifuged and analysed as described above. […]

Results on two compounds are retold here after patent publication US6921531B2, “Administering bifunctional molecules containing a drug moiety and presenter protein ligand for therapy” (The Board of Trustees of the Leland Stanford Junior …, priority 1998, dated 2005).

Structures are written as SMILES.

T1 sequence (P62942 whole entry, species assumed): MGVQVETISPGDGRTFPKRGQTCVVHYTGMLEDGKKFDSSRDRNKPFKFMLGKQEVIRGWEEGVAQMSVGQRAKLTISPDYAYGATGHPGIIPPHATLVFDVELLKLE

Take `CC[C@H](C)[C@H](NC(=O)[C@H](CCC(=O)O)NC(=O)[C@H](CCC(=O)O)NC(=O)[C@H](Cc1ccc(OP(=O)(O)O)cc1)NC(=O)COc1cccc([C@@H](CCc2ccc(OC)c(OC)c2)OC(=O)[C@@H]2CCCCN2C(=O)C(=O)C(C)(C)CC)c1)C(=O)O` [SLFpYEEI]: in assay [1], the Kd (in general, the equilibrium constant for the complex coming apart) was determined as 0.061 µM. In addition, in assay [2], the “Effect of FKBP12 on affinity for the Lck SH2 domain” value is recorded as “reduced binding”.
Taken in the same sequence, the figures for `CC[C@H](C)[C@H](NC(=O)[C@H](CCC(=O)O)NC(=O)[C@H](CCC(=O)O)NC(=O)[C@H](Cc1ccc(OP(=O)(O)O)cc1)NC(=O)OCC[C@@H]1/C=C(\C)C[C@H](C)C[C@H](OC)[C@H]2O[C@@](O)(C(=O)C(=O)N3CCCC[C@H]3C(=O)O[C@H](/C(C)=C/[C@@H]3CC[C@@H](O)[C@H](OC)C3)[C@H](C)[C@@H](O)CC1=O)[C@H](C)C[C@@H]2OC)C(=O)O` [FKpYEEI] were 0.045 µM and “does not affect the affinity”.
